From PMC6753678, “Fueling Open Innovation for Malaria Transmission-Blocking Drugs: Hundreds of Molecules Targeting Early Parasite Mosquito Stages” (Frontiers in Microbiology, 2019)

Tested on: P. berghei ookinete development
Conditions: for % inhibition, Replicate A / % inhibition, Replicate B: primary screen at 1 μM

| SMILES | % inhibition, Replicate A | % inhibition, Replicate B | IC50 (read-out: Pb Ookinete development assay IC50, dose response confirmation) |
| --- | --- | --- | --- |
| Cc1nc(SCC(=O)N2CCCC2=O)c2c(C)c(C)sc2n1 [TCMDC-123558] | 50.04% | 22.22% |  |
| CC(C)Oc1ccc2c(c1)OC(c1ccccc1)(C(F)(F)F)NC2=O (stereo not shown) [TCMDC-123633] | 24.49% | 54.58% |  |
| O=C(Nc1ccccc1O)c1ccc(S(=O)(=O)c2ccc(Cl)cc2)cc1 [TCMDC-123689] | 23.88% | 50.54% |  |
| CCCC(=O)Nc1ccc(Cl)c(NC(=O)COc2cc(C)ccc2C(C)C)c1 [TCMDC-123706] | 60.12% | 20.94% |  |
| Cl.O=C(CNC1CCCCC1)c1ccc(O)c(O)c1 [TCMDC-123961] | 31.52% | 68.95% |  |
| CC1Cc2ccccc2N1S(=O)(=O)c1cc(OCC(F)(F)F)ccc1OCC(F)(F)F (stereo not shown) [TCMDC-124044] | 52.34% | 21.81% |  |
| CCOC(=O)c1cn(CC)c2cc(N3CCCCCC3)c(F)cc2c1=O [TCMDC-124160] | 101.92% | 113.32% |  |
| c1ccc(-c2csc(Nc3nc4cc5c(cc4s3)OCO5)n2)nc1 [TCMDC-124550] | 83.78% | 59.07% |  |
| Cc1ccc(CN2CCC(C(=O)Nc3ccc(-c4cc5ccccc5[nH]4)cc3)CC2)o1 [TCMDC-124634] | 35.55% | 65.49% |  |
| COc1cc(OC)cc(C(=O)Nc2ccc(Nc3nc(C)cc(N(C)C)n3)cc2)c1 [TCMDC-124726] | 52.96% | 25.99% |  |
| Cc1ccc(-c2noc(COc3ccccc3C(=O)NC3CCCC3)n2)cc1 [TCMDC-124748] | 70.37% | 89.43% |  |
| Cc1cc(C(=O)NC2CCN(CC3(c4ccc(Cl)cc4)CCC3)CC2)on1 [TCMDC-124833] | 70.28% | 68.63% |  |
| O=C(CSc1nn(-c2ccccc2)c(=S)s1)c1c[nH]c2ccccc12 [TCMDC-124894] | 61.81% | 32.04% |  |
| COc1cc(CN2CCN(c3ccnc(N(C)C4CCN(C)CC4)n3)CC2)cc(Cl)c1O [TCMDC-125096] | 51.09% | 24.20% |  |
| CCN(CC)CCCC(C)Nc1c2ccc(Cl)cc2nc2ccc(OC)cc12.Cl.O (stereo not shown) [TCMDC-125480] | 33.29% | 58.69% |  |
| Br.CCc1ccccc1OCCCON1C(=N)N=C(N)NC1(C)C [TCMDC-131305] | 58.24% | 46.89% |  |
| CCSc1ccccc1COc1c(C)nc(N)nc1N.Cl [TCMDC-131359] | 61.82% | 19.87% |  |
| N=C1NC(=N)N(OCCCCCCON2C(=N)NC(=N)NC2C=Cc2ccccc2)C(C=Cc2ccccc2)N1 (stereo not shown) [TCMDC-131602] | 52.81% | 32.33% |  |
| Br.CC1(C)N=C(N)N=C(N)N1OCCc1ccc2ccccc2c1 [TCMDC-131755] | 66.00% | 52.02% |  |
| CC(C)c1cccc(C(C)C)c1NC(=O)NNC(=O)c1ccc(CCN2CCC(c3nc(COCC(F)(F)F)c(-c4ccc(F)cc4)o3)CC2)cc1 [TCMDC-131908] | 61.66% | 23.60% |  |
| CN1CCC(C(=O)Nc2ccc(-c3cccc(-c4nc5cc(F)ccc5[nH]4)c3)cc2)CC1 [TCMDC-132180] | 7.14% | 53.61% |  |
| CS(=O)(=O)NCCCNCc1cccc(-c2ccc(-c3nc4ccccc4[nH]3)s2)c1.O=C(O)C(F)(F)F [TCMDC-133088] | 41.67% | 56.04% |  |
| Cc1cccc2nc(-c3ccc(-c4ccc(NC(=O)NCc5cccc(F)c5)cc4)cc3)[nH]c12 [TCMDC-133294] | 56.07% | 54.12% |  |
| COc1ccc(Nc2nc(C)cc(NC3CCCC3)n2)cc1 [TCMDC-133465] | 51.72% | 31.38% |  |

| SMILES | % inhibition, Replicate A | % inhibition, Replicate B | IC50 (read-out: Pb Ookinete development assay IC50, dose response confirmation) |
| --- | --- | --- | --- |
| Cc1cc(Nc2cccc(C#N)c2)nc(Nc2ccccc2C)n1 [TCMDC-133471] | 56.49% | 36.05% |  |
| O=C(Nc1cccc(C(F)(F)F)c1)c1cccc(S(=O)(=O)NCC2CCCN2CC2CCCCC2)c1.O=C(O)C(F)(F)F (stereo not shown) [TCMDC-133687] | 11.95% | 57.11% |  |
| Cc1cccc2nc(-c3ccc(-c4cccc(CN5CCCC(N)C5)c4)s3)[nH]c12.O=C(O)C(F)(F)F (stereo not shown) [TCMDC-133874] | 50.71% | 12.43% |  |
| COc1ccc(-c2cc(C(=O)Nc3ccc4[nH]c(-c5ccccc5)nc4c3)[nH]n2)cc1.O=C(O)C(F)(F)F [TCMDC-134399] | 46.43% | 56.04% |  |
| COc1ccccc1-c1cccc(CNC2CCN(CC3Cn4c(=O)ccc5ccc(F)c3c54)CC2)c1.O=C(O)C(F)(F)F (stereo not shown) [TCMDC-134411] | 72.27% | 57.51% |  |
| COc1ccc2nccc(N3CCC(NCCNCc4ccc5c(n4)NC(=O)CS5)C3)c2n1.Cl (stereo not shown) [TCMDC-134649] | 18.73% | 51.52% |  |
| O=C(NCc1cccs1)[C@H](Cc1ccccc1)Nc1ccnc(NCC2CCCCC2)n1.O=C(O)C(F)(F)F [TCMDC-134708] | 21.89% | 53.00% |  |
| COc1cc(OC)cc(-c2nn(-c3ccc([N+](=O)[O-])cc3C#N)c(=S)n2CC2CCCO2)c1 (stereo not shown) [TCMDC-134716] | 44.85% | 53.94% | 5.46 µM |
| N#Cc1cc([N+](=O)[O-])ccc1-n1nc(-c2cccc(Cl)c2)n(Cc2ccco2)c1=S [TCMDC-134717] | 64.43% | 77.59% |  |
| COc1ccccc1CCNc1nc(C)cc(N[C@@H](Cc2ccccc2)C(=O)Nc2ccccc2)n1.O=C(O)C(F)(F)F [TCMDC-134804] | 57.50% | 38.80% |  |
| CN(Cc1ccccc1)C1CCN(c2cc(NC(=O)c3cccc(F)c3)ccn2)CC1.O=C(O)C(F)(F)F [TCMDC-135000] | 52.34% | 57.11% |  |
| Nc1ncnc2cc(-c3cccc(S(N)(=O)=O)c3)sc12 [TCMDC-135294] | 103.63% | 97.06% |  |
| Cc1[nH]c(C)c(-c2cccc(-c3ccc(OC(F)(F)F)cc3)c2)c(=O)c1Br [TCMDC-135303] | 52.85% | 65.81% |  |
| COc1ccc2nc(-c3cc(-c4ccc(NC(=O)CN5CCOCC5)cc4)cnc3N)[nH]c2c1 [TCMDC-135373] | 111.93% | 79.71% |  |
| COc1cc(C(=O)N2CCOC(CCN3CCC(c4ccc(Cl)cc4)CC3)(c3ccc(Cl)c(Cl)c3)C2)cc(OC)c1OC (stereo not shown) [TCMDC-135566] | 63.32% | 35.61% |  |
| CS(=O)(=O)Cc1ccc(Nc2nccc(-c3c(-c4cccc(NC(=O)c5c(F)cccc5F)c4)nn4ccccc34)n2)cc1 [TCMDC-135669] | 21.89% | 53.61% |  |
| Cl.O=C(CC1CCCC1)N(CC1CCN(Cc2ccc(C(F)(F)F)cc2)CC1)c1ccc(N2CCOCC2)c(F)c1 [TCMDC-135855] | 65.53% | 32.88% |  |
| O=C(Nc1ccc(Cl)cc1)N(CC1CC2CCC(C1)N2Cc1ccc(C(F)(F)F)cc1)c1ccc(N2CCOCC2)c(F)c1 (stereo not shown) [TCMDC-135859] | 55.58% | 25.24% |  |
| O=C(/C=C/c1ccc(Cl)c(Cl)c1)NCCCCCN1CCCN(C(=O)Nc2cc(Cl)nc(Cl)c2)CC1 [TCMDC-135888] | 61.66% | 48.73% |  |
| Cc1nc2ccc(-c3ccc(OC(F)(F)F)cc3)cc2c(O)c1C#N [TCMDC-136129] | 117.05% | 93.07% |  |
| Cc1[nH]cc(Br)c(=O)c1-c1ccc(Oc2ccc(OC(F)(F)F)cc2)cc1 [TCMDC-136197] | 35.07% | 51.32% |  |
| CCc1ccc(NC(=O)c2ccc(CN3CCCN(CC4CCCCC4)CC3)cc2)cc1.O=C(O)C(F)(F)F [TCMDC-136437] | 48.61% | 52.92% |  |
| CC(C)COc1ccc(Cl)cc1Cc1ccc(-c2nc3cnc4ccccc4c3[nH]2)o1 [TCMDC-136650] | 61.46% | 37.55% |  |
| Cc1cnc(C(=O)Nc2cccc(-c3ccc(-c4nc5cc(C(F)(F)F)ccc5[nH]4)s3)c2)cn1 [TCMDC-137028] | 1.65% | 57.27% |  |
